Key:
HuT78 cells [1] = assay: Mitochondrial membrane potential (∆Ψm), TMRE flow cytometry; type: cell-based, human; conditions: HuT78, 5 μM, 24 h
Procedure: Changes in the (∆Ψm) were measured using TMRE (tetramethylrhodamine, ethyl ester and perchlorate) dye. In brief, the tested cells (HuT 78) were plated in 6-well plates at a concentration of 5 × 10^5 cells per well and treated with 5 μM of the compounds 5d and 12d. After 24 h of treatment, the cells were collected, centrifuged for 6 min at 1100 rpm, and stained with 200 nM of TMRE dye according to the kit protocol (TMRE Mitochondrial Membrane Potential Assay Kit, abcam, Cambridge, UK). The positive control cells were treated with 20 μM FCCP (carbonyl cyanide-p-trifluoromethoxyphenylhydrazone) for 10 min. The cells were analyzed by flow cytometry (BD FACSCalibur, Becton Dickinson, San Jose, CA, USA) and FlowJo software (FlowJo, LLC, Ashland, OR, USA).

HuT78 cells [2] = assay: Annexin V-FITC/PI apoptosis detection; type: cell-based, human; conditions: HuT78, 5 μM, 24 h
Procedure: The proapoptotic potential of compounds 5d and 12d was tested on the HuT78 cells using the Annexin V-FITC Apoptosis Staining/Detection Kit (ab14085; abcam, UK). The cells were plated in 6-well plates at a concentration of 5 × 10^5 cells/well and treated for 24 h with 12d at a concentration of 5 μM. After the incubation period, the cells were collected and centrifuged at 1100 rpm for 6 min, stained according to the manufacturer‘s protocol, and analyzed by flow cytometry (BD FACSCalibur, Becton Dickinson, San Jose, CA, USA) using FlowJo software (FlowJo, LLC, Ashland, OR, USA).

Structure (SMILES): Clc1ccc2c(Nc3cccc(-c4nc5ccccc5[nH]4)c3)ccnc2c1 [Compound 5d, N-(3-(1H-benzo[d]imidazol-2-yl)phenyl)-7-chloroquinolin-4-amine]
- cells with mitochondrial membrane disruption / change in ∆Ψm (HuT78 cells [1]): 23.9%
- cells alive (HuT78 cells [2]): about 64%
- cells in early apoptosis (HuT78 cells [2]): 24.75%
- cells in late stage of apoptosis/necrosis (HuT78 cells [2]): 8.3%
